Assay results published in patent US20220096431A1, “PHARMACEUTICAL COMPOSITION AND METHOD FOR PREVENTING, TREATING AND DIAGNOSING A NEURODEGENERATIVE DISEASE” (BUDDHIST TZU CHI MEDICAL FOUNDATION, priority 2020, published 2022).
Entries after “also recorded” stand apart in the source; their conditions may differ.

How the values were obtained:
[1] = test system: miR-29b-2-5p expression in C6-C99 cells; test: RT-qPCR of miR-29b-2-5p/miR-9-5p in C6-C99 cells; assay type: cell-based; settings: 100 μM n-BP
Description: (§1) Then, C6-C99 cells were used to explore the effect of 100 μM n-butylidenephthalide (n-BP) on the expressions of miR-29b-2-5p, PSEN1, and Aβ1-42. […] Also shown in FIGS. 4G to 4I are the results of using miR-29b-2-5p inhibitor to evaluate whether n-BP inhibited PSEN1 and Aβ1-42 expression through miR-29b-2-5p. Specifically, miR-29b-2-5p inhibitor was transfected into C6-C99 cells and examined the inhibitory effect of n-BP treatment on PSEN1 and Aβ1-42 expression. It was observed that the addition of the miR-29b-2-5p inhibitor to C6-C99 cells abolished the 100 μM n-BP induced decrease in PSEN1 and Aβ1-42 expression.

[2] = test system: C6-C99 cells; test: Flow cytometry of C6-C99 cells (cumate-induced fluorescence); assay type: cell-based; settings: 100 μM n-BP
Description: Red peak, fluorescence of C6-C99 cells without cumate activation (background). Green peak, with cumate. Blue peak, with n-BP.
as §1

[3] = test system: neurons differentiated from trisomy 21-iPSC; test: Aβ aggregation, phosphorylated Tau and miRNA in neurons differentiated from Ts21-iPSC; assay type: cell-based, human
Source text: The neurons differentiated from the induced pluripotent stem cells produce hyperphosphorylated Tau (AT8). Excessive expression of AT8 affects winding signals and nutrient transmission of neurons; Aβ 1-42 is the main component of amyloid accumulation; microtubule-associated protein (microtubule-associated protein 2, MAP2) is a marker of neurons which mainly maintains the stability of dendritic neurons; tubulin (neuron-specific class III β-tubulin, TuJ1) is also a marker of neurons.
By genetic engineering, the four transcription factors Oct-4, Sox-2, c-Myc, and Klf-4 were delivered into adult cells and reverse-transcribed the cells into induced pluripotent stem cells (iPSC) carrying trisomy 21(Ts21) gene mutation.

[4] = test system: NICD, Aβ1-42 and PSEN1 in iPSC-derived human neurons; test: Western blot of NICD, Aβ1-42 and PSEN1 in iPSC-derived human neurons; assay type: cell-based; settings: 100 μM n-BP, 48 h
Description: Because the Notch intracellular domain (NICD) is most relevant to the development of AD drugs, western blot analysis was conducted to explore the effect of 100 μM n-BP-induced inhibition of Notch cleavage in iPSC-derived human neurons and on the expressions of miR-29b-2-5p and PSEN1. […] The change in the expressions of miR-29b-2-5p, PSEN1, and Aβ1-42 was therefore consistent with those observed in n-BP-treated Ts-21 iPSCs.

[5] = test system: Ts-21 iPSCs (neurons with Alzheimer's disease symptoms); test: Gene microarray analysis of n-BP-treated Ts-21 iPSCs; assay type: cell-based, human
Source text: To examine the mechanism by which n-BP regulated miR expression, n-BP-treated Ts-21 iPSCs were subjected to gene microarray analysis. […] The 4 predicted binding energy between lnc-CYP3A43-2 and miR-29b-2-5p are the lowest (−11.49 Kcal/mol) among these four lncRNA and the predicted target sequence between lnc-CYP3A43-2 and miR-29b-2-5p are shown in FIG. 6G.
For example, ATP6V0D2 and IST1 are autophagy-related genes, and the expression levels thereof increase by 30.07 times and 15.72 times, respectively, after administration of n-butylidenephthalide, while genes related to inflammation including NT5E, STAP1, DEC1, ADAMDEC1 have their expression levels reduced by 12.6, 12.79, 28.35 and 43.55 times, respectively.

[6] = test system: 3xTg transgenic mice; test: Amyloid accumulation in the brain of 3xTg transgenic mice, single and combined treatment (FIG. 11); assay type: in vivo; settings: 3xTg mice; 60 mg/kg n-butylidenephthalide, 200 mg/kg vitamin C, alone or combined; vs olive oil control
[7] = neurons with Alzheimer's disease symptoms, autophagy-related gene
[8] = neurons with Alzheimer's disease symptoms, inflammation-related gene

Q: What does the source list for `CCCC=C1OC(=O)c2ccccc21` [n-BP, n-butylidenephthalide]?
A: miR-29b-2-5p expression [1]: 358.95%±24.74%; Cumate expression / fluorescence of C6-C99 cells [2]: did not affect; also recorded: does not affect the fluorescence of C6-C99; Aβ aggregation ([3]; FIG. 5B): effectively reduces; Phosphorylation of Tau protein ([3]; FIG. 5B): effectively reduces; Expression level of miRNA-29b-2-5p ([3]; FIG. 5C): increased significantly; Aggregation of Aβ 1-42 (protein levels) ([3]; FIG. 5D): decreased; Protein expression of phosphorylated Tau protein ([3]; FIG. 5D): decreased; Aβ1-42 protein expression [4]: 35.02%±24.39%; Expression of proteins in NICD [4]: no change; PSEN1 protein expression [4]: 65.94%±4.52%; Multiple of change ([5]; gene A 21 P0014752, neurons with Alzheimer's disease symptoms): 17.29; Multiple of change ([5]; gene ADAMDECI, neurons with Alzheimer's disease symptoms): −43.55; Multiple of change ([5]; gene ATP6VOD2, neurons with Alzheimer's disease symptoms): 30.07; Multiple of change ([5]; gene BG182298, neurons with Alzheimer's disease symptoms): −11.75; Multiple of change ([5]; gene CTLA4, neurons with Alzheimer's disease symptoms): 29.78; Multiple of change ([5]; gene DECI, neurons with Alzheimer's disease symptoms): −28.35; Multiple of change ([5]; gene EN ST00000442006, neurons with Alzheimer's disease symptoms): −26.17; Multiple of change ([5]; gene EN ST00000552046, neurons with Alzheimer's disease symptoms): −38.01; Multiple of change ([5]; gene EN ST00000589476, neurons with Alzheimer's disease symptoms): −26.08; Multiple of change ([5]; gene ENST00000427341, neurons with Alzheimer's disease symptoms): 36.49; Multiple of change ([5]; gene ENST00000444130, neurons with Alzheimer's disease symptoms): 21.29; Multiple of change ([5]; gene ENST00000496217, neurons with Alzheimer's disease symptoms): 50.33; Multiple of change ([5]; gene ENST00000503666, neurons with Alzheimer's disease symptoms): 47.83; Multiple of change ([5]; gene ENST00000554445, neurons with Alzheimer's disease symptoms): 27.81; Multiple of change ([5]; gene ENST00000556397, neurons with Alzheimer's disease symptoms): 30.44; Multiple of change ([5]; gene GATA3, neurons with Alzheimer's disease symptoms): 10.76; Multiple of change ([5]; gene ISTI, neurons with Alzheimer's disease symptoms): 15.72; Multiple of change ([5]; gene Inc-DCTD-2, neurons with Alzheimer's disease symptoms): 9.25; Multiple of change ([5]; gene Inc-RP11-766F14.2.1-1, neurons with Alzheimer's disease symptoms): −34.38; Multiple of change ([5]; gene LOC100131532, neurons with Alzheimer's disease symptoms): 47.19; Multiple of change ([5]; gene LOC101060106, neurons with Alzheimer's disease symptoms): 22.27; Multiple of change ([5]; gene LOC101928280, neurons with Alzheimer's disease symptoms): −43.14; Multiple of change ([5]; gene LOC101928885, neurons with Alzheimer's disease symptoms): 21.40; Multiple of change ([5]; gene MBOATI, neurons with Alzheimer's disease symptoms): −4.65; Multiple of change ([5]; gene NCFIB, neurons with Alzheimer's disease symptoms): 34.03; Multiple of change ([5]; gene NT5E, neurons with Alzheimer's disease symptoms): −12.60; Multiple of change ([5]; gene SAP30L-AS1, neurons with Alzheimer's disease symptoms): 5.80; Multiple of change ([5]; gene SH3RF3, neurons with Alzheimer's disease symptoms): 23.23; Multiple of change ([5]; gene SPANXN3, neurons with Alzheimer's disease symptoms): 23.24; Multiple of change ([5]; gene STAPI, neurons with Alzheimer's disease symptoms): −12.79; Multiple of change ([5]; gene TAC4, neurons with Alzheimer's disease symptoms): 12.64; Multiple of change ([5]; gene TDRD5, neurons with Alzheimer's disease symptoms): 31.41; Multiple of change ([5]; gene THC2717143, neurons with Alzheimer's disease symptoms): 29.19; Multiple of change ([5]; gene TMC3-AS1, neurons with Alzheimer's disease symptoms): 6.53; Multiple of change ([5]; gene TSKS, neurons with Alzheimer's disease symptoms): 8.21; Multiple of change ([5]; gene TTTY14, neurons with Alzheimer's disease symptoms): −22.89; Multiple of change ([5]; gene XLOC 12 011873, neurons with Alzheimer's disease symptoms): 6.35; Multiple of change ([5]; gene lnc-AL450307.1-1, neurons with Alzheimer's disease symptoms): −56.05; Multiple of change ([5]; gene lnc-C50rf49-2, neurons with Alzheimer's disease symptoms): 34.90; Multiple of change ([5]; gene lnc-CYP3A43-2, neurons with Alzheimer's disease symptoms): −60.06; Multiple of change ([5]; gene lnc-FZDIO-3, neurons with Alzheimer's disease symptoms): 39.19; Multiple of change ([5]; gene lnc-ILIRI-1, neurons with Alzheimer's disease symptoms): −39.19; Multiple of change ([5]; gene lnc-KCNC2-4, neurons with Alzheimer's disease symptoms): −8.92; Multiple of change ([5]; gene lnc-KCNG3-1, neurons with Alzheimer's disease symptoms): 29.33; Multiple of change ([5]; gene lnc-KHDRBS3-9, neurons with Alzheimer's disease symptoms): 27.98; Multiple of change ([5]; gene lnc-P2RY2-3, neurons with Alzheimer's disease symptoms): −105.51; Multiple of change ([5]; gene lnc-PGPEPIL-I, neurons with Alzheimer's disease symptoms): 35.28; Multiple of change ([5]; gene lnc-PTGES-I, neurons with Alzheimer's disease symptoms): 28.50; Multiple of change ([5]; gene lnc-USP16-7, neurons with Alzheimer's disease symptoms): 31.72; Multiple of change ([5]; gene lnc-ZBTB7C-1, neurons with Alzheimer's disease symptoms): −60.03; Expression of four long noncoding RNA (lncRNA) ([5]; n-BP-treated Ts-21 iPSCs): less than −50 fold; ATP6V0D2 expression level, increase [5, 7]: 30.07 times; IST1 expression level, increase [5, 7]: 15.72 times; ADAMDEC1 expression level, reduced by [5, 8]: 43.55 times; DEC1 expression level, reduced by [5, 8]: 28.35 times; NT5E expression level, reduced by [5, 8]: 12.6 times; STAP1 expression level, reduced by [5, 8]: 12.79 times; Therapeutic effect on accumulation of amyloid in the brain [6]: significantly improved therapeutic effect
